Source: patent publication US20250145600A1, “2-((4-((S)-2-(4-CHLORO-2-FLUOROPHENYL)-2-METHYLBENZO[D][1,3]DIOXOL-4-YL)PIPERIDIN-1-YL)METHYL)-1-(((S)-OXETAN-2-YL)METHYL)-1H-IMIDAZOLE DERIVATIVES AS ACTIVATORS OF THE GLP1 RECEPTOR FOR THE TREATMENT OF OBESITY” (Novartis AG, priority 2022, published 2025)
pEC50: −log10 of the molar value.

Biological target: human GLP1R (hGLP1R) (Homo sapiens, UniProt P43220)
Assay: Human GLP1R cAMP agonist assay (GloSensor cAMP Assay)
Assay type: cell-based
Settings: HEK293-SNAP-hGLP1R-GloSensor cells; for Emax: cAMP activity as percent of GLP1 (7-36) EC100 control; for pEC50: intracellular cAMP, 12 min at rt
Experimental: Compounds of formula (I) according to the invention were tested in the following cellular assays that measure the intracellular cAMP concentration, beta-arrestin recruitment and receptor internalization. The cAMP is generated by the activation of GLP1R. The extent to which the GLP1R is internalized into the cell and away from the plasma membrane following activation is also shown in Table 2. EC50 for each assay is defined as the concentration of the compound that leads to half of the maximum response (after baseline correction). Emax is defined as the maximum response observed for the test compound, normalized to the maximum response observed for the endogenous ligand (GLP1(7-36)) to GLP1R.
Human GLP1R cAMP Agonist Assay
The agonist activity of compounds was determined using the GloSensor™ cAMP Assay (Promega Corp.), which measures changes in the intracellular concentration of cAMP after ligand activation of GPCRs. The assay uses a biosensor encoded by pGloSensor™-22F cAMP plasmid (Promega, cat #E2301) with cAMP binding domains fused to a mutant form of Photinus pyralis luciferase. Binding to cAMP causes conformational changes that promote large increases in light output, which can be measured by a luminescence detector. HEK293-SNAP-hGLP1R-GloSensor cells stably overexpressing the human GLP1 receptor (hGLP1R) and pGloSensor™-22F were seeded in white 384-well poly-D-Lysine coated plates (Greiner Bio One, cat #781945) in CO2-independent media (Gibco cat #18045-088 with 1.0% FBS, 2 mM L-glutamine, penicillin and streptomycin) and incubated overnight at 37° C., 5% CO2 with humidity. The assay was started the following morning by adding an equal volume of CO2-independent media containing 4% v/v dilution of the GloSensor substrate (Promega, cat #E1291) to all wells. The cell plate was incubated at rt for 2 h in the dark. The Biomek 7 (Beckman Coulter) instrument was used for the liquid handling steps. To generate duplicate dose response curves, 3-fold serially diluted compounds were added in to the cell assay plate to a final volume of 60 μL with final concentrations ranging from 30 μM through 0.06 μM in CO2-independent media containing 0.1% BSA, 0.5 mM IBMX and 0.4% DMSO. In the same plate and assay buffer as the tested compounds, were EC100 control wells containing GLP1 (7-36) peptide (Bachem, cat #H-6795) at a final concentration of 2 nM and also EC0 control wells containing no peptide. This plate was incubated at rt in the dark for 12 min after adding the compounds to the cells. Luminescence was then measured with an Envision 2104 Multilabel reader with “TRF Light Unit, 337 nm” (PerkinElmer) using the Ultra-Sensitive protocol setting “384-well US luminescence detector” with the 384-well luminescence aperture, 0.1 seconds per well. cAMP activity was calculated as percent of the GLP1 (7-36) EC100 control wells: [(sample signal−mean EC0 signal)/(mean EC100 of GLP1 (7-36) signal−mean EC0 signal)}*100. Curve fitting for EC50 determinations was performed in the Helios module of the software package DAVID. The 4-parameter logistic model, Hill slope was used: y=Ainf+(A0−Ainf)/(1+(x/AC50)^Hill Slope) where y is the functional response; x is the compound concentration; A0 is the minimum value (at 0 dose); Ainf is the maximum value (at infinite dose); AC50 corresponds to the point of inflection (i.e. the point on the sigmoid shaped curve halfway between A0 and Ainf). The EC50 value was represented by the AC50 value calculated from Helios in μM. Emax is the maximal activity detected within the concentration range, derived from the fitted curve.
327 μL of Opti-MEM medium (Gibco, cat #31985-062) were mixed with 12 μL of FuGENE® HD (Promega, cat #E2311) and incubated at rt for 5 min. Then 8.2 μL (4 μg, 0.485 μg/μL solution) of pSNAP-hGLP1R plasmid (Cisbio, cat #PSNAP-GLP1) encoding human GLP1R (NCBI Reference Sequence: NM_002062.3) fused with Cisbio's SNAP tag was added in to the Fugene HD/Opti-MEM mix, and incubated at rt for 20 min. […]

Chain of human GLP1R (hGLP1R) (P43220 24-463): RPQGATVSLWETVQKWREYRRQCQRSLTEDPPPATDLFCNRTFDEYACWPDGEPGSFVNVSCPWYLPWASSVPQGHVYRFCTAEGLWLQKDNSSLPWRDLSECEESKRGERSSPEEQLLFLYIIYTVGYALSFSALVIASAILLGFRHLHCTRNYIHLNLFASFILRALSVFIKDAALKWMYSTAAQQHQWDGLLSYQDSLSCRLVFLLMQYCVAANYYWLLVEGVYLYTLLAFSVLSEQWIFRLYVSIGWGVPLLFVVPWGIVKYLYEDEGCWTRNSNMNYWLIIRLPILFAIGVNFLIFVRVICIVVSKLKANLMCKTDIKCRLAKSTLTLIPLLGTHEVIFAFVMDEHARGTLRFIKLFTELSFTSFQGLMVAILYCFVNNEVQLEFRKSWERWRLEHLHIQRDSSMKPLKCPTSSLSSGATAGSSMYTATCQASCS

For `Cc1nc(CN2CCC(c3cccc4c3O[C@@](C)(c3ccc(Cl)cc3F)O4)CC2)n(C[C@@H]2CCO2)c1-c1nc(C(=O)O)c(C)o1` [Compound C-1, 2-(2-((4-((S)-2-(4-chloro-2-fluorophenyl)-2-methylbenzo[d][1,3]dioxol-4-yl)piperidin-1-yl)methyl)-4-methyl-1-(((S)-oxetan-2-yl)methyl)-1H-imidazol-5-yl)-5-methyloxazole-4-carboxylic acid], which Emax is on record?
Its Emax is 110%.

And the pEC50?
Its pEC50 is 10.25.

`C[C@]1(c2ccc(Cl)cc2F)Oc2cccc(C3CCN(Cc4nc(C(F)(F)F)c(-c5nc(C(=O)O)co5)n4C[C@@H]4CCO4)CC3)c2O1` [Compound C-4, 2-(2-((4-((S)-2-(4-chloro-2-fluorophenyl)-2-methylbenzo[d][1,3]dioxol-4-yl)piperidin-1-yl)methyl)-1-(((S)-oxetan-2-yl)methyl)-4-(trifluoromethyl)-1H-imidazol-5-yl)oxazole-4-carboxylic acid] was tested. Which Emax did it give?
The Emax was 120%.

What about the pEC50 of the same molecule?
Its pEC50 is 9.53.

With `CCc1nc(CN2CCC(c3cccc4c3O[C@@](C)(c3ccc(Cl)cc3F)O4)CC2)n(C[C@@H]2CCO2)c1-c1nc(C(=O)O)co1` [Compound C-5, 2-(2-((4-((S)-2-(4-chloro-2-fluorophenyl)-2-methylbenzo[d][1,3]dioxol-4-yl)piperidin-1-yl)methyl)-4-ethyl-1-(((S)-oxetan-2-yl)methyl)-1H-imidazol-5-yl)oxazole-4-carboxylic acid] as the molecule, how does the Emax read?
The Emax was 123%.

What about the pEC50 of the same molecule?
Its pEC50 is 10.38.

How did the Emax turn out when `CCc1nc(CN2CCC(c3cccc4c3O[C@@](C)(c3ccc(Cl)cc3F)O4)CC2)n(C[C@H]2CCO2)c1-c1nc(C(=O)O)co1` [Compound C-7, 2-(2-((4-((S)-2-(4-chloro-2-fluorophenyl)-2-methylbenzo[d][1,3]dioxol-4-yl)piperidin-1-yl)methyl)-4-ethyl-1-(((R)-oxetan-2-yl)methyl)-1H-imidazol-5-yl)oxazole-4-carboxylic acid] was run?
Its Emax is 118%.

What about the pEC50 of the same molecule?
The pEC50 was 10.45.

Which Emax does the source give for `Cc1nc(CN2CCC(c3cccc4c3O[C@@](C)(c3ccc(Cl)cc3F)O4)CC2)n(C[C@@H]2CCO2)c1-c1nc(C(=O)O)co1` [Compound C-9, 2-(2-((4-((S)-2-(4-chloro-2-fluorophenyl)-2-methylbenzo[d][1,3]dioxol-4-yl)piperidin-1-yl)methyl)-4-methyl-1-(((S)-oxetan-2-yl)methyl)-1H-imidazol-5-yl)oxazole-4-carboxylic acid] here?
The Emax was 107%.

And the pEC50?
Its pEC50 is 9.99.

For `CCc1oc(-c2c(C)nc(CN3CCC(c4cccc5c4O[C@@](C)(c4ccc(Cl)cc4F)O5)CC3)n2C[C@@H]2CCO2)nc1C(=O)O` [Compound C-10, 2-(2-((4-((S)-2-(4-chloro-2-fluorophenyl)-2-methylbenzo[d][1,3]dioxol-4-yl)piperidin-1-yl)methyl)-4-methyl-1-(((S)-oxetan-2-yl)methyl)-1H-imidazol-5-yl)-5-ethyloxazole-4-carboxylic acid], which Emax is on record?
Its Emax is 108%.

And the pEC50?
The pEC50 was 9.85.

What does the source list for `Cc1oc(-c2nc(CN3CCC(c4cccc5c4O[C@@](C)(c4ccc(Cl)cc4F)O5)CC3)n(C[C@@H]3CCO3)c2C)nc1C(=O)O` [Compound C-12, 2-(2-((4-((S)-2-(4-chloro-2-fluorophenyl)-2-methylbenzo[d][1,3]dioxol-4-yl)piperidin-1-yl)methyl)-5-methyl-1-(((S)-oxetan-2-yl)methyl)-1H-imidazol-4-yl)-5-methyloxazole-4-carboxylic acid]?
Emax: 114%; pEC50: 9.24

With `Cc1c(-c2nc(C(=O)O)co2)nc(CN2CCC(c3cccc4c3O[C@@](C)(c3ccc(Cl)cc3F)O4)CC2)n1C[C@@H]1CCO1` [Compound C-13, 2-(2-((4-((S)-2-(4-chloro-2-fluorophenyl)-2-methylbenzo[d][1,3]dioxol-4-yl)piperidin-1-yl)methyl)-5-methyl-1-(((S)-oxetan-2-yl)methyl)-1H-imidazol-4-yl)oxazole-4-carboxylic acid] as the molecule, how does the Emax read?
Its Emax is 102%.

What about the pEC50 of the same molecule?
Its pEC50 is 9.42.

`Cc1c(-c2nc(C(F)(F)F)c(C(=O)O)o2)nc(CN2CCC(c3cccc4c3O[C@@](C)(c3ccc(Cl)cc3F)O4)CC2)n1C[C@@H]1CCO1` [Compound C-14, 2-(2-((4-((S)-2-(4-chloro-2-fluorophenyl)-2-methylbenzo[d][1,3]dioxol-4-yl)piperidin-1-yl)methyl)-5-methyl-1-(((S)-oxetan-2-yl)methyl)-1H-imidazol-4-yl)-4-(trifluoromethyl)oxazole-5-carboxylic acid] was tested. Which Emax did it give?
Its Emax is 104%.

What about the pEC50 of the same molecule?
Its pEC50 is 9.31.

`Cc1c(-c2cnc(C(=O)O)o2)nc(CN2CCC(c3cccc4c3O[C@@](C)(c3ccc(Cl)cc3F)O4)CC2)n1C[C@@H]1CCO1` [Compound C-16, 5-(2-((4-((S)-2-(4-chloro-2-fluorophenyl)-2-methylbenzo[d][1,3]dioxol-4-yl)piperidin-1-yl)methyl)-5-methyl-1-(((S)-oxetan-2-yl)methyl)-1H-imidazol-4-yl)oxazole-2-carboxylic acid] was tested. Which Emax did it give?
The Emax was 108%.

What about the pEC50 of the same molecule?
The pEC50 was 9.77.

What does the source list for `Cc1c(-c2cc(C(=O)O)n(C)n2)nc(CN2CCC(c3cccc4c3O[C@@](C)(c3ccc(Cl)cc3F)O4)CC2)n1C[C@@H]1CCO1` [Compound C-17, 3-(2-((4-((S)-2-(4-chloro-2-fluorophenyl)-2-methylbenzo[d][1,3]dioxol-4-yl)piperidin-1-yl)methyl)-5-methyl-1-(((S)-oxetan-2-yl)methyl)-1H-imidazol-4-yl)-1-methyl-1H-pyrazole-5-carboxylic acid]?
Emax: 113%; pEC50: 9.12

Which results are given for `Cc1c(-c2coc(C(=O)O)n2)nc(CN2CCC(c3cccc4c3O[C@@](C)(c3ccc(Cl)cc3F)O4)CC2)n1C[C@@H]1CCO1` [Compound C-18, 4-(2-((4-((S)-2-(4-chloro-2-fluorophenyl)-2-methylbenzo[d][1,3]dioxol-4-yl)piperidin-1-yl)methyl)-5-methyl-1-(((S)-oxetan-2-yl)methyl)-1H-imidazol-4-yl)oxazole-2-carboxylic acid]?
Emax: 115%; pEC50: 9.73

Which results are given for `Cc1cc(-c2nc(CN3CCC(c4cccc5c4O[C@@](C)(c4ccc(Cl)cc4F)O5)CC3)n(C[C@@H]3CCO3)c2C)oc1C(=O)O` [Compound C-19, 5-(2-((4-((S)-2-(4-chloro-2-fluorophenyl)-2-methylbenzo[d][1,3]dioxol-4-yl)piperidin-1-yl)methyl)-5-methyl-1-(((S)-oxetan-2-yl)methyl)-1H-imidazol-4-yl)-3-methylfuran-2-carboxylic acid]?
Emax: 109%; pEC50: 9.42

For `Cc1nc(CN2CCC(c3cccc4c3O[C@@](C)(c3ccc(Cl)cc3F)O4)CC2)n(C[C@@H]2CCO2)c1-c1coc(C(=O)O)n1` [Compound C-20, 4-(2-((4-((S)-2-(4-chloro-2-fluorophenyl)-2-methylbenzo[d][1,3]dioxol-4-yl)piperidin-1-yl)methyl)-4-methyl-1-(((S)-oxetan-2-yl)methyl)-1H-imidazol-5-yl)oxazole-2-carboxylic acid], which Emax is on record?
The Emax was 112%.

What about the pEC50 of the same molecule?
Its pEC50 is 9.62.

Which Emax does the source give for `Cc1nc(CN2CCC(c3cccc4c3O[C@@](C)(c3ccc(Cl)cc3F)O4)CC2)n(C[C@@H]2CCO2)c1-c1cc(C(=O)O)n(C)n1` [Compound C-21, 3-(2-((4-((S)-2-(4-chloro-2-fluorophenyl)-2-methylbenzo[d][1,3]dioxol-4-yl)piperidin-1-yl)methyl)-4-methyl-1-(((S)-oxetan-2-yl)methyl)-1H-imidazol-5-yl)-1-methyl-1H-pyrazole-5-carboxylic acid] here?
The Emax was 117%.

And the pEC50?
Its pEC50 is 9.08.
